Data set [1] relates to C57BL/6 mice. As to the kind of experiment: 10 Day (acute) toxicity study in mice. In kind it is in vivo, mouse. The procedure: The LS180 cell line was used to assess cell cytotoxicity using the MTT (3‐(4,5‐dimethylthiazolyl‐2)‐2,5‐diphenyltetrazolium bromide) assay as previously described (Bartonkova et al, 2015, 2016). […] FKK6 was selected as a lead compound for assessment, given that it had the more favorable PXR‐selective ligand activity in cells. […] The mice were gavaged for ten consecutive days and necropsied on day 12 with the collection of blood (serum). […] Similarly, a 30‐day toxicity test was conducted in mice using FKK6 at an oral dose of 200 μM in 0.8% DMSO per day. We chose this dose to stay within the safe DMSO dose administered to mice over 30 days. On day 30, we necropsied the mice and collected blood (serum).

Data set [2] addresses T1, PRMT1 (Homo sapiens, UniProt Q99873).
T1 construct: purchased Reaction Biology Corp
Put plainly: Histone methyltransferase assay (Reaction Biology). In kind it is biochemical. The note with it: substrate Histone H4, replicates. The method, then: Software Tool and reprinted with permission from KINOME scan®, a division of DiscoveRx […]
The following […] assays (HDAC, SIRT1, PRMT1, PARP1, p300, pCAF) were performed by Reaction Biology Corp. FKK6 was screened at a single concentration of 10 μM in duplicate in two separate experiments. The appropriate controls for the individual assays are published. The overall […]
enzyme activity in the assay is reported as a % activity in DMSO control wells. Control IC50 […]
Briefly, for the Sirtuin (SIRT1) assay, human SIRT1 (GenBank
Accession No. NM012238) full -length N-terminal His-tag protein (MW 83.2 kDa) was purified after expression in E. coli. The reaction buffer was freshly prepared and constituted 50 mM Tris-HC l ( p H 8), 137 mM NaCl, 2.7 mM KCl, 1 mM MgCl2, and just before use, 1 mg/mL BSA and 1% DMSO was added. The substrate was a fluorogenic acetylated peptide of p53 residues 379-382 (RHKK (Ac)- AM C) . In th e multi-well format, the 2X enzyme was mixed with the reaction buffer followed by compound (in 100% DMSO) titration via Acoustic technology (Echo550; LabCyte Inc, Sunnyvale, CA) in the nanoliter range. The mixture was spun down and 2X substrate (including NAD+) was added to initiate the reaction at 30° C at 2h under seal. […]

Where “and” joins values, the source holds several entries; their conditions need not be identical. Identical values can stand only once.

T1 sequence (Q99873 whole entry, species assumed): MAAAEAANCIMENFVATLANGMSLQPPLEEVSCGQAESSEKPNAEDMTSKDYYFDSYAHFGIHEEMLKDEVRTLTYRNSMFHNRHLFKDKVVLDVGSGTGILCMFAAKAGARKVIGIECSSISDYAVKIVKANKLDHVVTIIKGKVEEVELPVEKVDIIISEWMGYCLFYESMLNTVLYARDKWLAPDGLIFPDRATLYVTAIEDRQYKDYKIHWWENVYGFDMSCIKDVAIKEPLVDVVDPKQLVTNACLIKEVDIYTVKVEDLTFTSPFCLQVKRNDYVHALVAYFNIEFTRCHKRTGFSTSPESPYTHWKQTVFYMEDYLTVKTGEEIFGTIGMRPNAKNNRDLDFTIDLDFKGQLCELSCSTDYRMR

`C#CCC(O)(c1ccncc1)c1cc2ccccc2n1S(=O)(=O)c1ccccc1` (centres unmarked) [FKK6]: the serum chemistry profiles entry in data set [1] (500 μM in 10% DMSO per day, gavage, ten days) is recorded as “did not alter”. Besides, the “tissue pathology vs vehicle” value in data set [1] (500 μM in 10% DMSO per day, gavage, ten days, necropsy day 12) is “did not significantly impact tissue pathology”. For the same compound, in data set [1] (10 day, n=6), the “Histopathology: Kidney” value is on record as “Degenerative tubules/vacuoles (rare) (n=6)”, the “Histopathology: Liver” value is “Mild periportal inflammation (n=5)”, the “Histopathology: Lung” value is listed as “Mild leukocytes (n=2)” and the “Histopathology: Spleen” value was “Mild lymphoid hyperplasia (n=2)”. The “% Enzyme Activity to DMSO controls” value in data set [2] (10 μM) was 88.77% and 78.47% and 81.3%. Also, the remaining activity at 10 µM in data set [2] (read-out: % Enzyme Activity to DMSO controls) was determined as 86.4%.

For the origin of these results see publication PMC7136958, “Targeting the pregnane X receptor using microbial metabolite mimicry” (EMBO Molecular Medicine, 2020).
